Measurements as given in ChEMBL document CHEMBL1140763, “Design, synthesis, and in vitro evaluation of new naphthylnitrobutadienes with potential antiproliferative activity: toward a structure/activity correlation” (Bioorg Med Chem, 2008).
pIC50: −log10 of the molar value.

Legend:
[1] = test system: P388; test: Antiproliferative activity against mouse P388 cells by MTT assay; assay type: functional, cell-based
[2] = test system: A2780; test: Antiproliferative activity against human A2780 cells by MTT assay; assay type: functional, cell-based
[3] = test system: PA-1; test: Antiproliferative activity against human PA1 cells by MTT assay; assay type: functional, cell-based
[4] = test system: Jurkat; test: Antiproliferative activity against human Jurkat cells by MTT assay; assay type: functional, cell-based
[5] = test system: HGC-27; test: Antiproliferative activity against human HGC27 cells by MTT assay; assay type: functional, cell-based
[6] = test system: A549; test: Cell cycle arrest in human A549 cells assessed as accumulation at G0/G1 phase at 25 uM after 48 hrs; assay type: functional
[7] = test system: A549; test: Cell cycle arrest in human A549 cells assessed as accumulation at S phase at 1.56 uM after 48 hrs; assay type: functional
[8] = test system: A549; test: Cell cycle arrest in human A549 cells assessed as accumulation at S phase at 6.25 uM after 48 hrs; assay type: functional
[9] = test system: A549; test: Cell cycle arrest in human A549 cells assessed as accumulation at S phase at 25 uM after 48 hrs; assay type: functional
[10] = test system: A549; test: Cell cycle arrest in human A549 cells assessed as accumulation at G2/M phase at 1.56 uM after 48 hrs; assay type: functional
[11] = test system: A549; test: Cell cycle arrest in human A549 cells assessed as accumulation at G2/M phase at 6.25 uM after 48 hrs; assay type: functional
[12] = test system: A549; test: Cell cycle arrest in human A549 cells assessed as accumulation at G2/M phase at 25 uM after 48 hrs; assay type: functional
[13] = test system: Jurkat; test: Cell cycle arrest in human Jurkat cells assessed as accumulation at G0/G1 phase at 1.56 uM after 48 hrs; assay type: functional
[14] = test system: Jurkat; test: Cell cycle arrest in human Jurkat cells assessed as accumulation at G0/G1 phase at 6.25 uM after 48 hrs; assay type: functional
[15] = test system: Jurkat; test: Cell cycle arrest in human Jurkat cells assessed as accumulation at G0/G1 phase at 25 uM after 48 hrs; assay type: functional
[16] = test system: Jurkat; test: Cell cycle arrest in human Jurkat cells assessed as accumulation at S phase at 1.56 uM after 48 hrs; assay type: functional
[17] = test system: Jurkat; test: Cell cycle arrest in human Jurkat cells assessed as accumulation at S phase at 6.25 uM after 48 hrs; assay type: functional
[18] = test system: Jurkat; test: Cell cycle arrest in human Jurkat cells assessed as accumulation at S phase at 25 uM after 48 hrs; assay type: functional
[19] = test system: Jurkat; test: Cell cycle arrest in human Jurkat cells assessed as accumulation at G2/M phase at 1.56 uM after 48 hrs; assay type: functional
[20] = test system: Jurkat; test: Cell cycle arrest in human Jurkat cells assessed as accumulation at G2/M phase at 6.25 uM after 48 hrs; assay type: functional
[21] = test system: Jurkat; test: Cell cycle arrest in human Jurkat cells assessed as accumulation at G2/M phase at 25 uM after 48 hrs; assay type: functional
[22] = test system: MDA-MB-231; test: Antiproliferative activity against human MDA-MB-231 cells by MTT assay; assay type: functional, cell-based
[23] = test system: HCT-8; test: Antiproliferative activity against human HCT8 cells by MTT assay; assay type: functional, cell-based
[24] = test system: A549; test: Antiproliferative activity against human A549 cells by MTT assay; assay type: functional, cell-based
[25] = Antiproliferative activity against human H1299 cells by MTT assay; assay type: functional, cell-based; conditions: NCI-H1299
[26] = test system: P388; test: Cytotoxicity against mouse P388 cells after 72 hrs by Trypan blue assay; assay type: functional
[27] = test system: A2780; test: Cytotoxicity against human A2780 cells after 72 hrs by Trypan blue assay; assay type: functional
[28] = test system: PA-1; test: Cytotoxicity against human PA1 cells after 72 hrs by Trypan blue assay; assay type: functional
[29] = test system: Jurkat; test: Cytotoxicity against human Jurkat cells after 72 hrs by Trypan blue assay; assay type: functional
[30] = test system: HGC-27; test: Cytotoxicity against human HGC27 cells after 72 hrs by Trypan blue assay; assay type: functional
[31] = test system: MDA-MB-231; test: Cytotoxicity against human MDA-MB-231 cells after 72 hrs by Trypan blue assay; assay type: functional
[32] = test system: HCT-8; test: Cytotoxicity against human HCT8 cells after 72 hrs by Trypan blue assay; assay type: functional
[33] = test system: A549; test: Cytotoxicity against human A549 cells after 72 hrs by Trypan blue assay; assay type: functional
[34] = Cytotoxicity against human H1299 cells after 72 hrs by Trypan blue assay; assay type: functional, NCI-H1299
[35] = test system: P388; test: Induction of apoptosis in mouse P388 cells by DAPI assay; assay type: functional
[36] = test system: A2780; test: Induction of apoptosis in human A2780 cells by DAPI assay; assay type: functional
[37] = test system: PA-1; test: Induction of apoptosis in human PA1 cells by DAPI assay; assay type: functional
[38] = test system: Jurkat; test: Induction of apoptosis in human Jurkat cells by DAPI assay; assay type: functional
[39] = test system: HGC-27; test: Induction of apoptosis in human HGC27 cells by DAPI assay; assay type: functional
[40] = test system: MDA-MB-231; test: Induction of apoptosis in human MDA-MB-231 cells by DAPI assay; assay type: functional
[41] = test system: HCT-8; test: Induction of apoptosis in human HCT8 cells by DAPI assay; assay type: functional
[42] = test system: A549; test: Induction of apoptosis in human A549 cells by DAPI assay; assay type: functional
[43] = test system: NCI-H1299; test: Induction of apoptosis in human H1299 cells by DAPI assay; assay type: functional
[44] = test system: P388; test: Effect on interstrand cross linking in DNA in mouse P388 cells at 0.1 uM; assay type: functional
[45] = test system: P388; test: Effect on interstrand cross linking in DNA in mouse P388 cells at 1 uM; assay type: functional
[46] = test system: A549; test: Stimulation of p53 oncoprotein expression in human A549 cells at 6 uM after 72 hrs; assay type: functional
[47] = test system: MDA-MB-231; test: Stimulation of p53 oncoprotein expression in human MDA-MB-231 cells at 0.9 uM; assay type: functional
[48] = test system: PA-1; test: Stimulation of p53 oncoprotein expression in human PA1 cells at 1.6 uM; assay type: functional
[49] = test system: A549; test: Cell cycle arrest in human A549 cells assessed as accumulation at G0/G1 phase at 1.56 uM after 48 hrs; assay type: functional
[50] = test system: A549; test: Cell cycle arrest in human A549 cells assessed as accumulation at G0/G1 phase at 6.25 uM after 48 hrs; assay type: functional

## COC(=O)/C(=C/C(=C\c1cccc2ccccc12)[N+](=O)[O-])SC
[1]
  pIC50: 5.85
[2]
  pIC50: 5.68
[3]
  pIC50: 5.80
[4]
  pIC50: 5.49
[5]
  pIC50: 5.68
[6]
  Activity: 41.2%
[7]
  Activity: 36.9%
[8]
  Activity: 33%
[9]
  Activity: 22.5%
[10]
  Activity: 16.6%
[11]
  Activity: 18%
[12]
  Activity: 36.5%
[13]
  Activity: 31.1%
[14]
  Activity: 41.3%
[15]
  Activity: 51.2%
[16]
  Activity: 50.3%
[17]
  Activity: 38.3%
[18]
  Activity: 22.4%
[19]
  Activity: 18.6%
[20]
  Activity: 20.4%
[21]
  Activity: 26.4%
[22]
  pIC50: 6.05
[23]
  pIC50: 4.90
[24]
  pIC50: 5.22
[25]
  pIC50: 5.55
[26]
  Activity: 75%
[27]
  Activity: 55%
[28]
  Activity: 22%
[29]
  Activity: 67%
[30]
  Activity: 21%
[31]
  Activity: 16%
[32]
  Activity: 10%
[33]
  Activity: 46%
[34]
  Activity: 14%
[35]
  Activity: 27%
[36]
  Activity: 25%
[37]
  Activity: 11%
[38]
  Activity: 14%
[39]
  Activity: 7%
[40]
  Activity: 4%
[41]
  Activity: 5%
[42]
  Activity: 60%
[43]
  Activity: 2%
[44]
  Activity: 1.7%
[45]
  Activity: 3.5%
[46]
  Activity: 2%
[47]
  Activity: 2%
[48]
  Activity: 2%
[49]
  Activity: 46.5%
[50]
  Activity: 49%

## O=[N+]([O-])C(=C/c1cccc2ccccc12)/C(=C\c1cccc2ccccc12)[N+](=O)[O-]
[1]
  pIC50: 5.68
[2]
  pIC50: 5.70
[3]
  pIC50: 5.44
[4]
  pIC50: 5.55
[5]
  pIC50: 5.05
[22]
  pIC50: 5.03
[23]
  pIC50: 5.01
[24]
  pIC50: 4.84

## O=C(O)c1ccc(/C=C(\C(=C/c2ccc(C(=O)O)c3ccccc23)[N+](=O)[O-])[N+](=O)[O-])c2ccccc12
[1]
  pIC50: 3.84
[2]
  pIC50: 3.44
[3]
  pIC50: 3.89
[4]
  pIC50: 3.76
